Experiment [1] addresses T1, Amyloid-beta precursor protein (Homo sapiens, UniProt P05067). The experiment is described as follows: Inhibition of human amyloid beta (1 to 42) oligomerization assessed as decrease in trimer formation at 50 uM after 2 hrs by Western blot analysis.
For experiment [2], the target named is T1, Amyloid-beta precursor protein. Briefly: Inhibition of human amyloid beta (1 to 42) oligomerization assessed as decrease in trimer formation at 25 uM after 2 hrs by Western blot analysis. On the technique in general: In western blotting, separated proteins are transferred to a membrane and probed.
Experiment [3] shares this target. Briefly: Inhibition of human amyloid beta (1 to 42) fibril formation at 50 uM after 24 hrs by transmission electron microscopic analysis.
For experiment [4] the target is unchanged. The experiment is described as follows: Inhibition of amyloid beta (1 to 42)-mediated neurotoxicity in human SH-SY5Y cells assessed as increase in cell viability after 48 hrs by MTT assay. It is filed as cell-based.
The target is the same in experiment [5]. The experiment is described as follows: Inhibition of amyloid beta (1 to 42)-mediated neurotoxicity in human SH-SY5Y cells assessed as increase in cell viability at 20 uM after 48 hrs by MTT assay. It is filed as cell-based. (Tetrazolium dyes change colour on reduction, which living cells bring about.)
Experiment [6] shares this target. The experiment is described as follows: Inhibition of human amyloid beta (1 to 42) aggregation at 1 to 100 uM after 24 hrs by thioflavin-T fluorescence assay.
Experiment [7] shares this target. Briefly: Inhibition of human amyloid beta (1 to 42) aggregates by measuring monomer concentration at 20 uM after 48 hrs by thermodynamic stability assay.
Experiment [8] has the same target. Briefly: Inhibition of human amyloid beta (1 to 42) aggregation after 24 hrs by thioflavin-T fluorescence assay.
The target is the same in experiment [9]. The experiment is described as follows: Inhibition of human amyloid beta (1 to 42) beta-sheet formation at 50 uM after 12 to 24 hrs by CD-spectra analysis.
For experiment [10] the target is unchanged. Briefly: Inhibition of human amyloid beta (1 to 42) oligomerization at 90 uM after 24 to 144 hrs by Dot blot analysis.

pIC50: −log10 of the molar value. Active and inactive are the calls of the source. The rule behind the calls is not given here.

T1 sequence (P05067 whole entry): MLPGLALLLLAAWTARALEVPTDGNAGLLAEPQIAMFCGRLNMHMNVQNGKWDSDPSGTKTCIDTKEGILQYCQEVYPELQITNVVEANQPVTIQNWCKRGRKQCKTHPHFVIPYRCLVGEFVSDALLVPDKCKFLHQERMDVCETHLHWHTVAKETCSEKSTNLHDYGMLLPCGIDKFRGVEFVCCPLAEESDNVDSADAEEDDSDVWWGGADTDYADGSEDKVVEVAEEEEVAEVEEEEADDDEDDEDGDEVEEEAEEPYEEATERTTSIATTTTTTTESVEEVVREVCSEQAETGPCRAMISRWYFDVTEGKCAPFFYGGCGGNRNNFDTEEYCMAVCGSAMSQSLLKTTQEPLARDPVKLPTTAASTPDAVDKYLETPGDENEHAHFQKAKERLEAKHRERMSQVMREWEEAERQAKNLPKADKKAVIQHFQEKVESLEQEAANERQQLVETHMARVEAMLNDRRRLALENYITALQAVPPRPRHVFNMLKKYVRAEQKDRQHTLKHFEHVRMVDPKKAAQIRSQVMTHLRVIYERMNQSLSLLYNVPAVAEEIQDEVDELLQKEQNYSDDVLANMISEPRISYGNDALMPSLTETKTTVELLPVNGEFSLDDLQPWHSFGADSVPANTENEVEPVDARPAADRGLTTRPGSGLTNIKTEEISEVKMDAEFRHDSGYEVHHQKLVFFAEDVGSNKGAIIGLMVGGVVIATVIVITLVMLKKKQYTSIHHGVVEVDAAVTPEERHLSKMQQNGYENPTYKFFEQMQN

With `O=C(/C=C/c1ccc(O)c(O)c1)O[C@@H]1C[C@](O)(C(=O)O)C[C@@H](OC(=O)/C=C/c2ccc(O)c(O)c2)[C@H]1OC(=O)/C=C/c1ccc(O)c(O)c1`, the inhibition is 63.1% in experiment [1], 87.6% in experiment [2] and “Dose-dependent effect” in experiment [4]. The inhibition entry in experiment [3], in experiment [6], in experiment [9] and in [10] was “Active” throughout. In addition, the Activity in [5] came out at 96.1%; in [7], 27 µM. Besides, in [8], the pIC50 is 6.52.

Turning to `O=C(O)/C=C/c1ccccc1` [CINNAMIC ACID], in [6], the inhibition result was “inactive”. Also, the pIC50 in [8] is less than 4.00.

As for `O=C(/C=C/c1ccc(O)c(O)c1)O[C@H]1[C@H](O)C[C@](OC(=O)/C=C/c2ccc(O)c(O)c2)(C(=O)O)C[C@H]1OC(=O)/C=C/c1ccc(O)c(O)c1`, the inhibition result in [6] is “Active”. In [8], the pIC50 was 5.66.

Take `O=C(/C=C/c1ccc(O)c(O)c1)O[C@@H]1C[C@](O)(C(=O)O)C[C@@H](OC(=O)/C=C/c2ccc(O)c(O)c2)[C@H]1O`: in experiment [6], the inhibition entry is “Active”. This compound showed a pIC50 in experiment [8] of 4.79.

For `O=C(/C=C/c1ccc(O)c(O)c1)O[C@@H]1C[C@](O)(C(=O)O)C[C@@H](O)[C@H]1O` [CHLOROGENIC ACID], in experiment [8], the pIC50 is 4.03 and the inhibition entry was “Dose-dependent effect”.

Regarding `COC(=O)[C@]1(O)C[C@@H](OC(=O)/C=C/c2ccc(O)c(O)c2)[C@@H](OC(=O)/C=C/c2ccc(O)c(O)c2)[C@H](OC(=O)/C=C/c2ccc(O)c(O)c2)C1`, in [6], the inhibition entry was “Active”. Besides, in experiment [8], the pIC50 is 5.52.

`COC(=O)[C@]1(O)C[C@@H](O)[C@@H](O)[C@H](OC(=O)/C=C/c2ccc(O)c(O)c2)C1` [CHLOROGENIC ACID METHYL ESTER]: the inhibition entry in experiment [6] was “inactive”. The pIC50 in experiment [8] is less than 4.00.

`O=C(/C=C/c1ccc(O)c(O)c1)O[C@@H]1[C@H](O)C[C@@](O)(C(=O)O)C[C@H]1OC(=O)/C=C/c1ccc(O)c(O)c1`: the inhibition entry in [6] was “Active”. Also, the pIC50 in experiment [8] is 5.33.

Turning to `O=C(O)/C=C/c1ccc(O)c(O)c1` [CAFFEIC ACID], in experiment [8], the negative-log IC50 (pIC50) is 4.48 and the inhibition entry was “Dose-dependent effect”.

In the case of `O=C(O)[C@]1(O)C[C@@H](O)[C@@H](O)[C@H](O)C1` (relative stereo) [QUINIC ACID], the inhibition in experiment [1] was 100%. Moreover, the inhibition result in experiment [6] was “inactive”. For the same compound, the Activity in [7] was determined as 1.2 µM. In experiment [8], this compound gave a pIC50 of less than 4.00.

As for `O=C(/C=C/c1ccc(O)c(O)c1)O[C@H]1[C@H](O)C[C@](O)(C(=O)O)C[C@H]1OC(=O)/C=C/c1ccc(O)c(O)c1`, the inhibition result in experiment [3], in experiment [6] and in experiment [9] was “Active” in each case. For the same compound, the inhibition result in experiment [4] is “Dose-dependent effect”. Moreover, the Activity in [5] stood at 78.9%; in experiment [7], 10 µM. In addition, the negative-log IC50 (pIC50) in experiment [8] was 7.00.

The inhibition is how much of the control response was suppressed. Broadly, the pIC50 is the negative decadic logarithm of the IC50, by convention in mol/L. Low readings indicate a high IC50, high ones a low IC50.

The record behind these values is ChEMBL document CHEMBL2146368, “Protective effects of caffeoylquinic acids on the aggregation and neurotoxicity of the 42-residue amyloid β-protein” (Bioorg Med Chem, 2012).
